From US11053235B2, “Substituted 1,4-dihydropyrimidines for the treatment of HBV infection or HBV-induced diseases” (Janssen Sciences Ireland Unlimited Company, priority 2018, dated 2021)
Read-outs that look alike come from different tables or passages of the source.

Experiments:
HBV = experiment: Anti-viral assay in HepG2.2.15 cells: HBV inhibitory activity (HBV DNA in culture medium by q-PCR); assay type: cell-based; conditions: HepG2.2.15 cells, 6 days treatment, HBV DNA in culture medium by q-PCR, highest concentration 10 uM, read-out: EC50
Source text: (§1) Example 2: Anti-Viral Assay in HepG2.2.15 Cells
(§2) 1.1. Cell Line • HepG2.2.15 (the HepG2.2.15 cell line can be produced by transfection of the HepG2 cell line as described in Sells, Chen, and Acs 1987 (Proc. Natl. Acad. Sci. USA 84:1005-1009), and the HepG2 cell line is available from ATCC® under number HB-8065™). Reagents • DMEM/F12 (INVITROGEN-11330032) • FBS (GIBCO-10099-141) • Dimethyl sulfoxide(DMSO) (SIGMA-D2650) • Penicillin-streptomycin solution (HYCLONE-SV30010) • NEAA (INVITROGEN-1114050) • L-Glutamine (INVITROGEN-25030081) • Geneticin Selective Antibiotic (G418, 500 mg/ml) (INVITROGEN-10131027) • Trypsinase digestion solution (INVITROGEN-25300062) • CCK8 (BIOLOTE-35004) • QIAamp 96 DNA Blood Kit (12) (QIAGEN-51162) • FastStart Universal Probe Mast Mix (ROCHE-04914058001)
(§3) 2.1. HBV Inhibitory Activity and Cytotoxicity Determination
(§4) Seed the cell HepG2.2.15 cells into 96-well plate in 2% FBS culture medium at the density of 40,000 cells/well and 5,000 cells/well for HBV inhibitory activity and cytotoxicity determination, respectively. After seeding, incubate the cell plates at 37° C., 5% CO2 overnight. The next day, medium containing compounds is added to the cell to treat the cells for 6 days with medium refreshed once in the middle of the treatment. 8 dose points with 3 folds dilution of each compound were adopted and the highest concentration of the compounds is 10 uM and 100 uM for HBV inhibitory activity and cytotoxicity determination, respectively.
The HBV DAN change in the cell culture medium induced by the compounds is measured by q-PCR method. Briefly, the HBV DNA in the culture medium is extracted using QIAamp 96 DNA Blood Kit according to the manual and then quantified by q-PCR using the primers and probe in the table below.
(§5) EC50 and CC50 values are calculated by the GRAPHPAD PRISM software.

[1] = Cytotoxicity determination in HepG2.2.15 cells (CCK-8); assay type: cell-based; conditions: human, 6 days treatment, CCK-8, highest concentration 100 uM
Source text: as §1, §2, §3, §4
After 6 days of compounds treatment, add 20 μl CCK-8 reagents to each well of cytotoxicity assay plates, incubate the plate at 37° C., 5% CO2 for 2.5 h and measure the absorbance at 450 nm wavelength, at the same time read the absorbance at 630 nm wavelength as reference.
as §5

[2] = Hepatitis B virus, HepG2.2.15, 144 h

## CCOC(=O)C1=C([C@H]2CC[C@H](c3nc(CCC(=O)O)co3)CC2)NC(c2nccs2)=NC1c1ccc(F)c(F)c1Cl (relative stereo) [Compound I-24, (trans)-3-(2-(4-(6-(2-Chloro-3,4-difluorophenyl)-5-(ethoxycarbonyl)-2-(thiazol-2-yl)-3,6-dihydropyrimidin-4-yl)cyclohexyl)oxazol-4-yl)propanoic acid]
HBV; [2]
  EC50: 0.012 µM
[1]
  CC50 at 6 days: 7.55 µM

## COC(=O)C1=C([C@H]2CC[C@H](c3nc(C(=O)O)co3)CC2)NC(c2nccs2)=NC1c1ccc(F)c(F)c1Cl (single isomer, unassigned) [Compound I-1-C, (trans)-2-(4-(6-(2-Chloro-3,4-difluorophenyl)-5-(methoxycarbonyl)-2-(thiazol-2-yl)-3,6-dihydropyrimidin-4-yl)cyclohexyl)oxazole-4-carboxylic Acid]
HBV; [2]
  EC50: 0.0075 µM
[1]
  CC50 at 6 days: 13.6 µM

## CCOC(=O)C1=C([C@H]2CC[C@H](c3nc(C(=O)O)co3)CC2)NC(c2nccs2)=NC1c1ccc(F)c(F)c1Cl (single isomer, unassigned) [Compound I-2-D, (trans)-2-(4-(6-(2-Chloro-3,4-difluorophenyl)-5-(ethoxycarbonyl)-2-(thiazol-2-yl)-3,6-dihydropyrimidin-4-yl)cyclohexyl)oxazole-4-carboxylic Acid]
HBV; [2]
  EC50: 0.006 µM
[1]
  CC50 at 6 days: 9.37 µM

## COC(=O)C1=C([C@H]2CC[C@H](c3nc(C(=O)O)co3)CC2)NC(c2nccs2)=NC1c1cccc(F)c1C (single isomer, unassigned) [Compound I-3-D, trans-2-(4-(6-(3-Fluoro-2-methylphenyl)-5-(methoxycarbonyl)-2-(thiazol-2-yl)-3,6-dihydropyrimidin-4-yl)cyclohexyl)oxazole-4-carboxylic Acid]
HBV; [2]
  EC50: 0.14 µM
[1]
  CC50 at 6 days: 14.2 µM

## COC(=O)C1=C([C@H]2CC[C@H](c3nc(C(=O)O)co3)CC2)NC(c2nccs2)=NC1c1ccc(F)cc1Cl (single isomer, unassigned) [Compound I-4-B, (trans)-2-(4-(6-(2-Chloro-4-fluorophenyl)-5-(methoxycarbonyl)-2-(thiazol-2-yl)-3,6-dihydropyrimidin-4-yl)cyclohexyl)oxazole-4-carboxylic Acid]
HBV; [2]
  EC50: 0.011 µM
[1]
  CC50 at 6 days: 16.4 µM

## COC(=O)C1=C([C@H]2CC[C@H](c3nc(C(=O)O)co3)CC2)NC(c2nccs2)=NC1c1cccc(F)c1Cl (single isomer, unassigned) [Compound I-5-B, (trans)-2-(4-(6-(2-Chloro-3-fluorophenyl)-5-(methoxycarbonyl)-2-(thiazol-2-yl)-3,6-dihydropyrimidin-4-yl)cyclohexyl)oxazole-4-carboxylic Acid]
HBV; [2]
  EC50: 0.06 µM
[1]
  CC50 at 6 days: 19.3 µM

## COC(=O)C1=C([C@H]2CC[C@H](c3nc(C(=O)O)co3)CC2)NC(c2nccs2)=NC1c1ccc(F)cc1C (single isomer, unassigned) [Compound I-6-B, (trans)-2-(4-(6-(4-Fluoro-2-methylphenyl)-5-(methoxycarbonyl)-2-(thiazol-2-yl)-3,6-dihydropyrimidin-4-yl)cyclohexyl)oxazole-4-carboxylic Acid]
HBV; [2]
  EC50: 0.072 µM
[1]
  CC50 at 6 days: 17.4 µM

## COC(=O)C1=C([C@H]2CC[C@H](c3nc(C(=O)O)co3)CC2)NC(c2ncc(F)cc2F)=NC1c1ccc(F)c(F)c1Cl (single isomer, unassigned) [Compound I-7-B, (trans)-2-(4-(6-(2-chloro-3,4-difluorophenyl)-2-(3,5-difluoropyridin-2-yl)-5-(methoxycarbonyl)-3,6-dihydropyrimidin-4-yl)cyclohexyl)oxazole-4-carboxylic acid]
HBV; [2]
  EC50: 0.024 µM
[1]
  CC50 at 6 days: 14.3 µM

## COC(=O)C1=C(C23CC(c4nc(C(=O)O)co4)(C2)C3)NC(c2nccs2)=NC1c1ccc(F)c(F)c1Cl (single isomer, unassigned) [Compound I-8-B, 2-(3-(6-(2-Chloro-3,4-difluorophenyl)-5-(methoxycarbonyl)-2-(thiazol-2-yl)-3,6-dihydropyrimidin-4-yl)bicyclo[1.1.1]pentan-1-yl)oxazole-4-carboxylic Acid]
HBV; [2]
  EC50: 0.051 µM
[1]
  CC50 at 6 days: 26.6 µM

## CCOC(=O)C1=C([C@H]2CC[C@H](c3nc(C(=O)O)co3)CC2)NC(c2nccs2)=NC1c1cccc(F)c1Cl (single isomer, unassigned) [Compound I-9-B, (trans)-2-(4-(6-(2-chloro-3-fluorophenyl)-5-(ethoxycarbonyl)-2-(thiazol-2-yl)-3,6-dihydropyrimidin-4-yl)cyclohexyl)oxazole-4-carboxylic Acid]
HBV; [2]
  EC50: 0.025 µM
[1]
  CC50 at 6 days: 12.3 µM

## CCOC(=O)C1=C([C@H]2CC[C@H](c3nc(C(=O)O)co3)CC2)NC(c2nccs2)=NC1c1ccc(F)cc1Cl (single isomer, unassigned) [Compound I-10-C, (trans)-2-(4-(6-(2-Chloro-4-fluorophenyl)-5-(ethoxycarbonyl)-2-(thiazol-2-yl)-3,6-dihydropyrimidin-4-yl)cyclohexyl)oxazole-4-carboxylic Acid]
HBV; [2]
  EC50: 0.022 µM
[1]
  CC50 at 6 days: 7.64 µM

## CCOC(=O)C1=C([C@H]2CC[C@H](c3nc(C(=O)O)co3)CC2)NC(c2nccs2)=NC1c1cccc(F)c1C (single isomer, unassigned) [Compound I-11-B, (trans)-2-(4-(5-(Ethoxycarbonyl)-6-(3-fluoro-2-methylphenyl)-2-(thiazol-2-yl)-3,6-dihydropyrimidin-4-yl)cyclohexyl)oxazole-4-carboxylic Acid]
HBV; [2]
  EC50: 0.037 µM
[1]
  CC50 at 6 days: 12.1 µM

## CCOC(=O)C1=C([C@H]2CC[C@H](c3nc(C(=O)O)co3)CC2)NC(c2nccs2)=NC1c1ccc(F)cc1C (single isomer, unassigned) [Compound I-12-C, (trans)-2-(4-(5-(Ethoxycarbonyl)-6-(4-fluoro-2-methylphenyl)-2-(thiazol-2-yl)-3,6-dihydropyrimidin-4-yl)cyclohexyl)oxazole-4-carboxylic Acid]
HBV; [2]
  EC50: 0.036 µM
[1]
  CC50 at 6 days: 11.1 µM

## CCOC(=O)C1=C(C2CC=C(c3nc(C(=O)O)co3)CC2)NC(c2nccs2)=NC1c1ccc(F)c(F)c1Cl (single isomer, unassigned) [Compound I-13-C, 2-(4-(6-(2-chloro-3,4-difluorophenyl)-5-(ethoxycarbonyl)-2-(thiazol-2-yl)-3,6-dihydropyrimidin-4-yl)cyclohex-1-en-1-yl)oxazole-4-carboxylic Acid]
HBV
  EC50: 0.0065 µM
[1]
  CC50 at 6 days: 5.61 µM

## CCOC(=O)C1=C([C@H]2CC[C@H](c3nc(C(=O)O)c(C)o3)CC2)NC(c2nccs2)=NC1c1ccc(F)c(F)c1Cl (single isomer, unassigned) [Compound I-14-B, (trans)-2-(4-(6-(2-Chloro-3,4-difluorophenyl)-5-(ethoxycarbonyl)-2-(thiazol-2-yl)-3,6-dihydropyrimidin-4-yl)cyclohexyl)-5-methyloxazole-4-carboxylic Acid]
HBV; [2]
  EC50: 0.0047 µM
[1]
  CC50 at 6 days: 3.72 µM

## CCOC(=O)Cc1coc([C@H]2CC[C@H](C3=C(C(=O)OCC)C(c4ccc(F)c(F)c4Cl)N=C(c4nccs4)N3)CC2)n1 (single isomer, unassigned) [VII-23-Y, (trans)-Ethyl 4-(2-chloro-3,4-difluorophenyl)-(4-(4-(2-ethoxy-2-oxoethyl)oxazol-2-yl)cyclohexyl)-2-(thiazol-2-yl)-1,4-dihydropyrimidine-5-carboxylate]
HBV; [2]
  EC50: 0.023 µM
